In the supplement of paper PMC8960247:
Structures can show the parent of a compound that is named as a salt. ± gives the standard error.

Columns and labels:
621-102 (TSC2-deficient) = experiment: relative viability vs DMSO; higher = less cytotoxic; conditions: serum: 10% FBS, 72 h
621-103 (TSC2-rescued) = experiment: as above; conditions: serum: 10% FBS, 72 h
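Further: immortalized renal angiomyolipoma cells stably carrying empty vector or TSC2, dosed in 384-well plates in DMEM, viability normalized to vehicle-treated wells within each plate.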

Structure (SMILES) | relative viability (621-102 (TSC2-deficient); 0.0001 µM) [%] | relative viability (621-102 (TSC2-deficient); 0.001 µM) [%] | relative viability (621-102 (TSC2-deficient); 0.01 µM) [%] | relative viability (621-102 (TSC2-deficient); 0.1 µM) [%] | relative viability (621-102 (TSC2-deficient); 1 µM) [%] | relative viability (621-102 (TSC2-deficient); 10 µM) [%] | relative viability (621-103 (TSC2-rescued); 0.0001 µM) [%] | relative viability (621-103 (TSC2-rescued); 0.001 µM) [%] | relative viability (621-103 (TSC2-rescued); 0.01 µM) [%] | relative viability (621-103 (TSC2-rescued); 0.1 µM) [%] | relative viability (621-103 (TSC2-rescued); 1 µM) [%] | relative viability (621-103 (TSC2-rescued); 10 µM) [%]
CCc1c2c(nc3ccc(OC(=O)N4CCC(N5CCCCC5)CC4)cc13)-c1cc3c(c(=O)n1C2)COC(=O)[C@]3(O)CC [Irinotecan] | 105 ± 1.2 | 106 ± 3.8 | 93.9 ± 2.1 | 108 ± 2.8 | 82 ± 0.64 | 33.7 ± 0.69 | 104 ± 4.3 | 98.62 ± 0.9 | 103 ± 1.1 | 99.19 ± 0.57 | 84.6 ± 1.1 | 30.2 ± 0.71
Clc1ccc(C(Cn2ccnc2)OCc2c(Cl)cccc2Cl)c(Cl)c1 (stereo not drawn) [Isoconazole] | 104 ± 1.2 | 107 ± 2.4 | 86.81 ± 0.67 | 108.4 ± 0.37 | 107 ± 1.4 | 100 ± 4.3 | 104 ± 2.4 | 109 ± 4 | 105 ± 1 | 103.2 ± 0.24 | 108 ± 1.4 | 95.32 ± 0.49
CC(C)NCC(O)c1ccc(O)c(O)c1 (stereo not drawn) [Isoprenaline HCl] | 103 ± 4.7 | 99.5 ± 2.4 | 102 ± 1.1 | 95.5 ± 4.2 | 94.6 ± 2.4 | 98.26 ± 0.6 | 95.6 ± 2 | 88 ± 5.3 | 91.5 ± 1.7 | 94.2 ± 6.9 | 91.3 ± 2.6 | 83.3 ± 1.6
Cc1ccc(C(=O)N(CCCN)[C@@H](c2nc3cc(Cl)ccc3c(=O)n2Cc2ccccc2)C(C)C)cc1 [Ispinesibmesilate] | 95.1 ± 1.5 | 81.2 ± 1.3 | 77.62 ± 0.57 | 63.9 ± 3 | 73 ± 1.6 | 1.22 ± 0.096 | 68.8 ± 3 | 51.76 ± 0.14 | 55.41 ± 0.1 | 49.4 ± 1.4 | 53.36 ± 0.26 | 1.19 ± 0.11
CCC(C)n1ncn(-c2ccc(N3CCN(c4ccc(OCC5COC(Cn6cncn6)(c6ccc(Cl)cc6Cl)O5)cc4)CC3)cc2)c1=O (stereo not drawn) [Itraconazole (Sporanox)] | 108 ± 2.3 | 115 ± 3.1 | 102 ± 1.8 | 112 ± 3.4 | 60 ± 7.2 | 7.53 ± 0.32 | 98.8 ± 5.2 | 86.8 ± 1.1 | 95.59 ± 0.8 | 97.5 ± 6.4 | 70.71 ± 0.48 | 15.44 ± 0.12
CCCNC(=O)Nc1ccc(Oc2ncnc3cc(OC)c(OC)cc23)cc1Cl [KRN 633] | 84.4 ± 4.7 | 119 ± 2.7 | 104 ± 12 | 94.6 ± 3.8 | 100 ± 2.7 | 102 ± 1.3 | 85.6 ± 4.4 | 95.9 ± 4.2 | 100 ± 3 | 96.9 ± 1.9 | 90.3 ± 3.6 | 99.8 ± 3.4
O=C(c1ccc(/C=C/c2n[nH]c3ccccc23)cc1)N1CCNCC1 [KW 2449] | 103 ± 1.6 | 92.5 ± 3.8 | 93.7 ± 0.96 | 94.1 ± 1.3 | 95.02 ± 0.93 | 37.58 ± 0.36 | 102.2 ± 0.34 | 101.3 ± 0.97 | 101.8 ± 0.59 | 102 ± 1.6 | 96.784 ± 0.018 | 15.1 ± 0.84
O=C(c1ccc(F)cc1)C1CCN(CCn2c(=O)[nH]c3ccccc3c2=O)CC1 [Ketanserin (Vulketan Gel)] | 89 ± 2.5 | 103 ± 2.1 | 98.4 ± 2 | 103.9 ± 0.64 | 92.4 ± 3.8 | 88.1 ± 1.1 | 113.6 ± 1.1 | 103 ± 2.4 | 102.89 ± 0.072 | 105.8 ± 0.41 | 107 ± 1.4 | 96.3 ± 1
O=C(c1ccccc1)c1ccc2n1CCC2C(=O)O (stereo not drawn) [Ketorolac] | 102 ± 1.8 | 102 ± 4.5 | 106 ± 2.7 | 109 ± 3.2 | 117 ± 4.6 | 94.8 ± 7.1 | 96.9 ± 1.1 | 121 ± 6.7 | 128 ± 4 | 112 ± 3.3 | 98.25 ± 0.73 | 108 ± 1.6
CCCCCCCCCCCCCCCC(=O)OC[C@H](O)[C@H]1OC(=O)C(O)=C1O [L-Ascorbyl 6-palmitate] | 122 ± 5.9 | 111 ± 2.5 | 107 ± 3.4 | 107 ± 1.8 | 106.5 ± 0.81 | 111 ± 2.4 | 99.8 ± 2.5 | 105.8 ± 0.61 | 96.5 ± 3.2 | 100 ± 2.4 | 97.4 ± 2.1 | 94.9 ± 5
Cc1[nH]c2ccccc2c1CCNCc1ccc(/C=C/C(=O)NO)cc1 [LBH-589 (Panobinostat)] | 96.4 ± 2.3 | 86.7 ± 1.3 | 69.1 ± 3.1 | 41.28 ± 0.39 | 25.4 ± 1 | 11.9 ± 0.59 | 97.6 ± 1.1 | 85.6 ± 1.8 | 52.19 ± 0.31 | 4.57 ± 0.076 | 1.66 ± 0.2 | 1.1 ± 0.019
Cc1c(C(=O)Nc2ccc(N3C[C@@H](C)O[C@@H](C)C3)nc2)cccc1-c1ccc(OC(F)(F)F)cc1 [LDE225] | 91.8 ± 6.5 | 106 ± 2.3 | 116 ± 3.8 | 120 ± 0.74 | 115 ± 5.7 | 81.9 ± 9.2 | 92.8 ± 2.8 | 113 ± 7.7 | 112 ± 2.8 | 115.8 ± 0.72 | 116 ± 6.1 | 54.6 ± 1.5
CS(=O)(=O)CCNCc1ccc(-c2ccc3ncnc(Nc4ccc(OCc5cccc(F)c5)c(Cl)c4)c3c2)o1 [Lapatinib Ditosylate] | 102.2 ± 0.43 | 100 ± 1.8 | 110 ± 2.3 | 101.41 ± 0.072 | 103 ± 2.5 | 82.9 ± 3.4 | 97.35 ± 0.2 | 96.4 ± 3.8 | 104 ± 1.5 | 101 ± 3.3 | 99.1 ± 4 | 48.9 ± 1.6
Nc1cccc2c1CN(C1CCC(=O)NC1=O)C2=O (stereo not drawn) [Lenalidomide] | 107 ± 2.9 | 115 ± 1.9 | 113 ± 3 | 112 ± 2.1 | 109 ± 4.8 | 98.472 ± 0.068 | 101 ± 1.6 | 98.8 ± 1 | 100 ± 1.1 | 100.4 ± 0.81 | 100.5 ± 0.13 | 98.62 ± 0.12
N#Cc1ccc(C(c2ccc(C#N)cc2)n2cncn2)cc1 [Letrozole] | 130 ± 1.9 | 114 ± 5.8 | 114 ± 0.22 | 104 ± 5 | 113.3 ± 0.22 | 111 ± 1.2 | 103 ± 1.7 | 105 ± 2 | 103.5 ± 0.86 | 99.5 ± 1 | 102.6 ± 0.18 | 101 ± 1.1
CC(=O)NC[C@H]1CN(c2ccc(N3CCOCC3)c(F)c2)C(=O)O1 [Linezolid] | 99.5 ± 7.5 | 108 ± 2.5 | 102.8 ± 0.25 | 105 ± 2.2 | 102 ± 4.4 | 101.1 ± 0.19 | 105 ± 5.3 | 110 ± 4.4 | 98.2 ± 2.4 | 101 ± 0.73 | 103 ± 1.3 | 104 ± 3
CN(C)C(=O)C(CCN1CCC(O)(c2ccc(Cl)cc2)CC1)(c1ccccc1)c1ccccc1 [Loperamide HCl] | 112.8 ± 0.39 | 107 ± 1.7 | 99.2 ± 2.1 | 109 ± 4.1 | 106 ± 4.2 | 82.5 ± 1.3 | 91.7 ± 4.4 | 84.8 ± 2.2 | 97.2 ± 1.4 | 98.2 ± 1.8 | 92.17 ± 0.64 | 59.5 ± 0.85
O=c1cc(-c2ccc(O)c(O)c2)oc2cc(O)cc(O)c12 [Luteolin (Luteolol)] | 108.1 ± 0.74 | 104 ± 2.9 | 104.7 ± 0.25 | 100 ± 3 | 105.3 ± 0.74 | 101.9 ± 0.18 | 107.6 ± 0.4 | 103 ± 3.2 | 102 ± 1.6 | 100 ± 3.7 | 108 ± 4.5 | 92.4 ± 2
Cn1cc(/C=C/C(=O)c2cccc(F)c2)cc1/C=C/C(=O)NO [MC1568] | 109.3 ± 0.42 | 106.9 ± 0.32 | 103 ± 7.3 | 104 ± 2.1 | 98.5 ± 4.7 | 102.6 ± 0.25 | 99.97 ± 0.52 | 98 ± 1 | 99.34 ± 0.99 | 98.5 ± 1.1 | 100 ± 1.3 | 101 ± 1.5
